Experimental data as given in the supplement of paper PMC12317010.
Structures can show the parent of a compound that is named as a salt.

Assay: collision cross section in nitrogen (drift tube, single-field); higher = larger gas-phase ion size
[1] = ion type: [M-H], ion source: ESI, ion mode: Negative
[2] = ion type: [M+H], ion source: APCI, ion mode: Positive
[3] = ion type: [M+H], ion source: ESI, ion mode: Positive
[4] = ion type: [M+Na], ion source: ESI, ion mode: Positive
[5] = ion type: [M+], ion source: APCI, ion mode: Positive
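Also: chemical standards at 10 µM analysed by drift tube IMS-QTOF MS in about 3.95 torr nitrogen, mean of duplicate injections differing ≤1%, mass error below 10 ppm.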

Compound | collision cross section in nitrogen [1] [Å²] | collision cross section in nitrogen [2] [Å²] | collision cross section in nitrogen [3] [Å²] | collision cross section in nitrogen [4] [Å²] | collision cross section in nitrogen [5] [Å²]
O=[N+]([O-])O [Potassium nitrate] | 104.9 | – | – | – | –
S=c1[nH]c2cc(Cl)ccc2s1 [5-Chloro-1,3-benzothiazole-2(3H)-thione] | 133.3 | – | – | – | –
CN(C)C(=O)C(c1ccccc1)c1ccccc1 [Diphenamid] | – | 154.1 | 154.7 | 164.6 | –
CC(=O)O[C@]1(C(C)=O)CC[C@H]2[C@@H]3C[C@H](C)C4=CC(=O)CC[C@]4(C)[C@H]3CC[C@@]21C [Medroxyprogesterone acetate] | – | – | – | 212.7 | –
O[Si](c1ccccc1)(c1ccccc1)c1ccccc1 [Triphenylsilanol] | 171 | – | – | – | –
COCCOCCOCCOCCOC [2,5,8,11,14-Pentaoxapentadecane] | – | – | – | 147.3 | –
CS(=O)(=O)c1ccc(C2=C(c3ccccc3)C(=O)OC2)cc1 [Rofecoxib] | 174.4 | – | – | – | –
NCCOS(=O)(=O)O [2-Aminoethyl hydrogen sulfate] | 121.6 | – | – | – | –
O=S(=O)(NS(=O)(=O)C(F)(F)F)C(F)(F)F [Lithium bis[(trifluoromethyl)sulfonyl]azanide] | 129.9 | – | – | – | –
c1csc(-c2ccc(-c3cccs3)s2)c1 [alpha-Terthiophene] | – | – | – | – | 146.4
O=C1c2ccccc2C(=O)c2c1ccc1ccccc21 [7,12-Benz(a)anthraquinone] | 155.7 | – | – | – | –
Cc1ncc([N+](=O)[O-])n1CCO [Metronidazole] | – | 133.8 | 134.3 | – | –
OCCC1CCCCN1 (stereo not given) [2-Piperidineethanol] | – | 125.7 | 126.6 | – | –
O=c1[nH]c(=O)c2c[nH]nc2[nH]1 [Oxypurinol] | 122.3 | – | – | – | –
Nc1ccc(Sc2ccc(N)cc2)cc1 [4,4'-Thiodianiline] | – | 164.9 | 164.4 | – | 148.1
CC(=O)S[C@H](C(=O)N[C@H]1Cc2ccccc2[C@H]2CCC[C@@H](C(=O)O)N2C1=O)C(C)C [Ilepatril] | 193.7 | 195.4 | 194.9 | 198.7 | –
CC(C)C(C(=O)OC(C#N)c1cccc(Oc2ccccc2)c1)c1ccc(OC(F)F)cc1 (stereo not given) [Flucythrinate] | – | 214.8 | – | 208.3 | –
COc1cc(OC)nc(Sc2cccc(Cl)c2C(=O)O)n1 [Pyrithiobac sodium] | – | 166.7 | 166.6 | 173.5 | –
c1cc(N(CC2CO2)CC2CO2)ccc1OCC1CO1 (stereo not given) [4-(Diglycidylamino)phenyl glycidyl ether] | – | 167.5 | 167 | 161.7 | –
COc1nc(NC(C)C)nc(NC(C)C)n1 [Prometon] | – | 156.1 | 156.5 | 173.7 | –
Cc1oc(-c2ccccc2)nc1CCOc1cccc2c1ccn2CCC(=O)O | – | 190.8 | 190.6 | 186.3 | –
CCNc1nc(NC(C)(C)C)nc(SC)n1 [Terbutryn] | – | 159.9 | 159.4 | – | –

Compound | collision cross section in nitrogen [1] [Å²] | collision cross section in nitrogen [2] [Å²] | collision cross section in nitrogen [3] [Å²] | collision cross section in nitrogen [4] [Å²] | collision cross section in nitrogen [5] [Å²]
C=CCc1ccccc1O [2-Allylphenol] | 128.1 | – | – | – | –
CSc1nnc(C(C)(C)C)c(=O)n1N [Metribuzin] | 148.3 | 146.7 | 148.4 | – | –
CCCCCCOC(=O)CC(CC(=O)OCCCCCC)(OC(=O)CCC)C(=O)OCCCCCC [Butyryl-n-trihexylcitrate] | – | – | – | 245.5 | –
OCCc1ccccn1 [2-(2-Pyridyl)ethanol] | – | 120.7 | 121.2 | – | –
CN(C)CCOC(c1ccccc1)c1ccccc1 [Diphenhydramine hydrochloride] | – | – | – | 168.8 | –
Cc1cc(C)nc(N)n1 [2-Amino-4,6-dimethylpyrimidine] | – | 123.7 | 123 | – | –
O=S(=O)(O)c1ccc2cc(O)ccc2c1 [Sodium 6-hydroxynaphthalene-2-sulfonate] | 148.7 | – | – | – | –
NS(=O)(=O)c1ccccc1Cl [2-Chlorobenzenesulfonamide] | 133.5 | – | – | – | –
CC1(C)[C@H](/C=C(\Cl)C(F)(F)F)[C@@H]1C(=O)O[C@@H](C#N)c1cccc(Oc2ccccc2)c1 [lambda-Cyhalothrin] | – | – | – | 190.4 | –
COc1ccc(C(CN(C)C)C2(O)CCCCC2)cc1 (stereo not given) [Venlafaxine hydrochloride] | – | 170.8 | 170.7 | 177.7 | –
Cc1[nH]c(=O)c(C#N)cc1-c1ccncc1 [Milrinone] | 147.4 | 157.1 | 156.3 | – | –
O=C(CCCN1CCC(O)(c2ccc(Cl)cc2)CC1)c1ccc(F)cc1 [Haloperidol] | 190.2 | 195.1 | 195.1 | 200.2 | –
O=C1OC2(c3ccc(O)cc3Oc3cc(O)ccc32)c2ccccc21 [Fluorescein] | 176.8 | 174.2 | 174.2 | 190.6 | –
Cc1ccccc1OP(=O)(Oc1ccccc1C)Oc1ccccc1C [Tri-o-cresyl phosphate] | – | 182.7 | 182.3 | 192.7 | –
Cc1ccc(NC(=O)N(C)C)cc1NC(=O)N(C)C [3,3'-(4-Methylbenzene-1,3-diyl)bis(1,1-dimethylurea)] | 165.1 | – | 162.7 | 167.6 | –
Cc1cc(=O)[nH]c(=S)[nH]1 [6-Methyl-2-thiouracil] | 123.1 | – | – | – | –
O=C(O)c1ccc(S(=O)(=O)O)cc1C(=O)O [4-Sulfophthalic acid] | 145.3 | – | – | – | –
Nc1c(S(=O)(=O)O)cc(Nc2ccccc2)c2c1C(=O)c1ccccc1C2=O [Acid Blue 25] | 191.1 | – | 190.2 | – | –
Oc1cc(Cl)c(Cl)cc1Cl [2,4,5-Trichlorophenol] | 128.7 | – | – | – | –
CN(C)CCN(Cc1cccs1)c1ccccn1 [Methapyrilene hydrochloride] | – | 157.6 | 157.6 | 160.1 | –
CCC1COC(Cn2cncn2)(c2ccc(Cl)cc2Cl)O1 (stereo not given) [Etaconazole] | – | 175.4 | 174.1 | 189.3 | –
